This passage reports MIC and IC50 results from patent US20100137303A1, “NEW COMPOUND 255” (AstraZeneca AB, priority 2008, published 2010).

Assay [1] relates to M. tuberculosis. Description: Mycobacteria susceptibility testing, Microplate Alamar Blue Assay, Mtu MIC. It is filed as cell-based, Mycobacterium tuberculosis (Mtu). The settings on record: Mycobacterium tuberculosis. In general terms: Alamar Blue is a resazurin reagent that responds to reducing activity.
For assay [2], the system named is Spn548. Description: Bacterial susceptibility testing in liquid media, Spn548 MIC. Particulars: Streptococcus pneumoniae, 24 h, read-out: Spn548 Mean MIC.
Description: Compounds may be tested for antimicrobial activity by susceptibility testing in liquid media. Compounds may be dissolved in dimethylsulfoxide and tested in 10 doubling dilutions in the susceptibility assays. The organisms used in the assay may be grown overnight on suitable agar media and then suspended in a liquid medium appropriate for the growth of the organism. The suspension can be a 0.5 McFarland and a further 1 in 10 dilution can be made into the same liquid medium to prepare the final organism suspension in 100 μL. Plates can be incubated under appropriate conditions at 37° C. for 24 hrs prior to reading.
Assay [3] addresses T1, Msm. GyrB (Mycolicibacterium smegmatis, UniProt A0QNE0).
T1 construct: 15 nM Msm; GyrB, 650 μM ATP, and compound in dimethyl sulfoxide
Description: Msmegmatis GyrB enzyme assay (ATPase, malachite green phosphate detection). It is filed as biochemical. The settings on record: read-out: Msm_GyrB IC50. The procedure:
Compounds may be tested for inhibition of GyrB ATPase activity using an ammonium molybdate/malachite green-based phosphate detection assay (Lanzetta, P. A., L. J. Alvarez, P. S. Reinach, and O. A. Candia, 1979, 100: 95-97; Innova Biosciences malachite green detection kit). Assays can be performed in multi-well plates in 50 μl reactions containing: 50 mM HEPES buffer pH 7.7, 250 mM potassium glutamate, 200 mM potassium chloride, 2 mM magnesium chloride, 2% glycerol, 1 mM 1,4-Dithio-DL-threitol, 0.005% Brij-35, 15 nM Msm. GyrB, 650 μM ATP, and compound in dimethyl sulfoxide. Reactions can be quenched with 12.5 μl of ammonium molybdate/malachite green detection reagent (Pi color lock gold & accelerator mix; Innova Biosciences), followed by the addition of 5 μl of stabilizer (Innova Biosciences) after 5 min of incubation.

Assay [4] has as its system Eco-tolC. Description: Bacterial susceptibility testing in liquid media, Eco-tolC MIC. Particulars: Escherichia coli, read-out: Eco-tolC MIC.

In brackets after ≈: the same amount, converted by molar mass.

T1 sequence (A0QNE0 whole entry): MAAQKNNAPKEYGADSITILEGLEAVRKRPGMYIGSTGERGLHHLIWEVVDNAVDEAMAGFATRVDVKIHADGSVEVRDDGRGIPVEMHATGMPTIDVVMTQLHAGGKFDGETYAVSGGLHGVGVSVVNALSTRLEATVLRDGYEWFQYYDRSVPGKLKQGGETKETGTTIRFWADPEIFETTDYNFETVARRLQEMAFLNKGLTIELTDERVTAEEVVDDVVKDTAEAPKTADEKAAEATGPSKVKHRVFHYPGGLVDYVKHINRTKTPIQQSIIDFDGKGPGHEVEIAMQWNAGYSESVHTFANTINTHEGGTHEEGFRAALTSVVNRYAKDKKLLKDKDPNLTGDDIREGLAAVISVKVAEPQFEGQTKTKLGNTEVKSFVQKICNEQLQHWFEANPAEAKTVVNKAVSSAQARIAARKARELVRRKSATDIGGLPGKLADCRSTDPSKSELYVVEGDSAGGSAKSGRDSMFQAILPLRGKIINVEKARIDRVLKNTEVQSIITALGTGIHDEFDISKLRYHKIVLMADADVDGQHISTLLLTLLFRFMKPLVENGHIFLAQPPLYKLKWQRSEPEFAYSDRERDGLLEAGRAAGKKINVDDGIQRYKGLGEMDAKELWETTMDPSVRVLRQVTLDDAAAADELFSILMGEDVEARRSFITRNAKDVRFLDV

Regarding `CCNC(=O)Nc1nc2cc(-c3cncc(C(=O)OCC)c3)cnc2s1` [Example 9, 5-[2-(3-Ethyl-ureido)-thiazolo [5,4-b]pyridin-6-yl]-nicotinic acid ethyl ester], the MIC in assay [1] is over 32 mg/L; in assay [2], 0.58 mg/L (≈ 1.56 µM); in assay [4] it was over 37.1 mg/L. For the same compound, in assay [3], the IC50 was found to be 0.0511 µM.

As to `C=CCNC(=O)Nc1nc2cc(-c3cncc(C(=O)O)c3)cnc2s1` [Example 10, 5-[2-(3-Allyl-ureido)-thiazolo[5,4-b]pyridin-6-yl]-nicotinic acid], the results for the MIC in assay [1], in assay [2] and in assay [4] were over 16 mg/L, 32 mg/L (≈ 90 µM) and over 64 mg/L, respectively. For the same compound, in assay [3], the half-inhibitory concentration (IC50) came out at 0.185 µM.

On to `CCNC(=O)Nc1nc2cc(-c3cncc(C(=O)O)c3)cnc2s1` [Example 11, 5-[2-(3-Ethyl-ureido)-thiazolo [5,4-b]pyridin-6-yl]-nicotinic acid], for which the results for the minimum inhibitory concentration (MIC) in assay [1], in assay [2] and in assay [4] were 32 mg/L (≈ 93.2 µM), 17.2 mg/L (≈ 50 µM) and over 34.3 mg/L, respectively. Also, the concentration for half-maximal inhibition (IC50) in assay [3] came out at 0.159 µM.

Consider `C=CCNC(=O)Nc1nc2cc(-c3cncc(C(=O)O)c3)c(C)nc2s1` [Example 12, 5-[2-(3-Allyl-ureido)-5-methylthiazolo [5,4b]pyridin-6-yl]nicotinic acid], for which the minimum inhibitory concentration (MIC) is over 32 mg/L in assay [1], 32 mg/L (≈ 86.6 µM) in assay [2] and over 32 mg/L in assay [4]. In addition, the IC50 in assay [3] is 0.166 µM.

For `C=CCNC(=O)Nc1nc2cc(-c3cncc(C(=O)N(C)C)c3)c(C)nc2s1` [Example 13, 5-[2-(3-Allyl-ureido)-5-methyl-thiazolo[5,4-b]pyridin-6-yl]-N,N-dimethyl-nicotinamide], the figures for the MIC in assay [1], in assay [2] and in assay [4] were over 32 mg/L, 4 mg/L (≈ 10.1 µM) and over 32 mg/L, respectively. Also, the IC50 in assay [3] worked out at 0.644 µM.

As to `C=CCNC(=O)Nc1nc2cc(Br)cnc2o1` [Example 14, 1-allyl-3-(6-bromooxazolo[5,4-b]pyridin-2-yl)urea], the MIC in assay [1] was over 16 mg/L; in assay [2] it was 16 mg/L (≈ 53.9 µM); in assay [4], 32 mg/L (≈ 108 µM). Besides, in assay [3], the IC50 is 24.7 µM.

As to `C=CCNC(=O)Nc1nc2cc(-c3cccnc3)cnc2o1` [Example 15, 1-allyl-3-(6-(pyridin-3-yl)oxazolo[5,4-b]pyridin-2-yl)urea], the MIC in assay [1] was over 16 mg/L; in assay [2], 16 mg/L (≈ 54.2 µM); in assay [4] it was over 64 mg/L. Also, the half-inhibitory concentration (IC50) in assay [3] is 2 µM.

Turning to `C=CCNC(=O)Nc1nc2cc(-c3cnc(OC)nc3)c(C)nc2o1` [Example 16, 3-allyl-1-[6-(2-methoxypyrimidin-5-yl)-5-methyl-oxazolo[5,4-b]pyridin-2-yl]urea], the minimum inhibitory concentration (MIC) in assay [1] is over 32 mg/L; in assay [2] it was 16 mg/L (≈ 47 µM); in assay [4] it was over 32 mg/L. Further, the IC50 in assay [3] was determined as 1.61 µM.

Turning to `C=CCNC(=O)Nc1nc2cc(-c3cnc(OC)nc3)c(OCCN(C)C)nc2s1` [Example 17, 1-allyl-3-(5-(2-(dimethylamino)ethoxy)-6-(2-methoxypyrimidin-5-yl)thiazolo[5,4-b]pyridin-2-yl)urea], the MIC is over 64 mg/L in assay [1], 16 mg/L (≈ 37.3 µM) in assay [2] and over 64 mg/L in assay [4]. Moreover, the half-maximal inhibitory concentration (IC50) in assay [3] turned out to be 0.216 µM.

With `CCNC(=O)Nc1nc2cc(-c3cnc(OC)nc3)cnc2o1` [Example 18, 1-ethyl-3-[6-(2-methoxypyrimidin-5-yl)[1,3]oxazolo[5,4-b]pyridin-2-yl]urea], the MIC in assay [1], in assay [2] and in assay [4] was over 32 mg/L throughout. Besides, the IC50 in assay [3] is 10.9 µM.

Consider `C=CCNC(=O)Nc1nc2cc(-c3cncc(C(=O)NCCCN4CCCC4=O)c3)cnc2s1` [Example 19, N-[3-(2-oxopyrrolidin-1-yl)propyl]-5-{2-[(prop-2-en-1-ylcarbamoyl)amino][1,3]thiazolo[5,4-b]pyridin-6-yl}pyridine-3-carboxamide], for which the minimal inhibitory concentration (MIC) in assay [1] was 32 mg/L (≈ 66.7 µM); in assay [2] it was over 32 mg/L; in assay [4], over 32 mg/L. The IC50 in assay [3] was found to be 0.297 µM.

For the compound `C=CCNC(=O)Nc1nc2cc(-c3cnc(OC)nc3)c(OCCN3CCCC3)nc2s1` [Example 20, 1-[6-(2-methoxypyrimidin-5-yl)-5-(2-pyrrolidin-1-ylethoxy)[1,3]thiazolo[5,4-b]pyridin-2-yl]-3-prop-2-en-1-ylurea], the MIC in assay [1], in assay [2] and in assay [4] was over 32 mg/L throughout. In addition, the IC50 in assay [3] is 0.259 µM.

For the compound `C=CCNC(=O)Nc1nc2cc(-c3cncc(C(=O)NCC4CCOCC4)c3)cnc2s1` [Example 21, 5-{2-[(prop-2-en-1-ylcarbamoyl)amino][1,3]thiazolo[5,4-b]pyridin-6-yl}-N-(tetrahydro-2H-pyran-4-ylmethyl)pyridine-3-carboxamide], the values for the MIC in assay [1], in assay [2] and in assay [4] were over 64 mg/L, over 32 mg/L and over 32 mg/L, respectively. The IC50 in assay [3] is 0.236 µM.

Consider `C=CCNC(=O)Nc1nc2cc(-c3cncc(C(=O)NC)c3)cnc2s1` [Example 22, N-methyl-5-{2-[(prop-2-en-1-ylcarbamoyl)amino][1,3]thiazolo[5,4-b]pyridin-6-yl}pyridine-3-carboxamide], for which the MIC is over 64 mg/L in assay [1], over 32 mg/L in assay [2] and over 32 mg/L in assay [4]. In addition, the half-inhibitory concentration (IC50) in assay [3] was found to be 0.323 µM.

Turning to `C=CCNC(=O)Nc1nc2cc(-c3cncc(C(=O)NCC)c3)cnc2s1` [Example 23, N-ethyl-5-{2-[(prop-2-en-1-ylcarbamoyl)amino][1,3]thiazolo[5,4-b]pyridin-6-yl}pyridine-3-carboxamide], the MIC is over 64 mg/L in assay [1], over 32 mg/L in assay [2] and over 32 mg/L in assay [4]. Also, the half-inhibitory concentration (IC50) in assay [3] amounted to 0.404 µM.

For the compound `C=CCNC(=O)Nc1nc2cc(-c3cncc(C(=O)NCCC(C)C)c3)cnc2s1` [Example 24, N-(3-methylbutyl)-5-{2-[(prop-2-en-1-ylcarbamoyl)amino][1,3]thiazolo[5,4-b]pyridin-6-yl}pyridine-3-carboxamide], the MIC was over 64 mg/L in assay [1], over 32 mg/L in assay [2] and over 32 mg/L in assay [4]. For the same compound, in assay [3], the IC50 turned out to be 0.583 µM.

Regarding `C=CCNC(=O)Nc1nc2cc(-c3cncc(C(=O)N4CCOCC4)c3)cnc2s1` [Example 25, 1-{6-[5-(morpholin-4-ylcarbonyl)pyridin-3-yl][1,3]thiazolo[5,4-b]pyridin-2-yl}-3-prop-2-en-1-ylurea], the MIC in assay [1], in assay [2] and in assay [4] was over 32 mg/L in each case. The IC50 in assay [3] is 1.44 µM.

With `C=CCNC(=O)Nc1nc2cc(-c3cncc(C(=O)NCC(C)C)c3)cnc2s1` [Example 26, N-(2-methylpropyl)-5-{2-[(prop-2-en-1-ylcarbamoyl)amino][1,3]thiazolo[5,4-b]pyridin-6-yl}pyridine-3-carboxamide], the MIC in assay [1], in assay [2] and in assay [4] was over 32 mg/L throughout. In assay [3], the IC50 was determined as 0.394 µM.

As to `C=CCNC(=O)Nc1nc2cc(-c3cc[nH]n3)c(C)nc2s1` [Example 27, 1-[5-methyl-6-(1H-pyrazol-3-yl)[1,3]thiazolo[5,4-b]pyridin-2-yl]-3-prop-2-en-1-ylurea], the minimum inhibitory concentration (MIC) in assay [1] is 11.3 mg/L (≈ 36 µM); in assay [2], 2 mg/L (≈ 6.36 µM); in assay [4], over 22.6 mg/L. Moreover, the IC50 in assay [3] is 1.84 µM.

For `C=CCNC(=O)Nc1nc2cc(-c3cncnc3)c(OCCOC)nc2s1` [Example 30, 1-[5-(2-methoxyethoxy)-6-pyrimidin-5-yl[1,3]thiazolo[5,4-b]pyridin-2-yl]-3-prop-2-en-1-ylurea], the minimum inhibitory concentration (MIC) was 2 mg/L (≈ 5.18 µM) in assay [1], 0.152 mg/L (≈ 0.394 µM) in assay [2] and 0.609 mg/L (≈ 1.58 µM) in assay [4]. The IC50 in assay [3] is 0.0603 µM.

Regarding `C=CCNC(=O)Nc1nc2cc(-c3nc(C(=O)O)cs3)cnc2s1` [Example 31, 2-{2-[(prop-2-en-1-ylcarbamoyl)amino][1,3]thiazolo[5,4-b]pyridin-6-yl}-1,3-thiazole-4-carboxylic acid], the minimal inhibitory concentration (MIC) in assay [1], in assay [2] and in assay [4] was over 32 mg/L throughout. Further, the IC50 in assay [3] worked out at 8.94 µM.

Turning to `C=CCNC(=O)Nc1nc2cc(-c3cnccn3)cnc2s1` [Example 32, 1-prop-2-en-1-yl-3-(6-pyrazin-2-yl[1,3]thiazolo[5,4-b]pyridin-2-yl)urea], the values for the MIC in assay [1], in assay [2] and in assay [4] were over 32 mg/L, 32 mg/L (≈ 102 µM) and over 32 mg/L, respectively. For the same compound, in assay [3], the IC50 was determined as 0.836 µM.

On to `C=CCNC(=O)Nc1nc2cc(-c3cncnc3)c(OCC(C)C)nc2s1` [Example 33, 1-[5-(2-methylpropoxy)-6-pyrimidin-5-yl[1,3]thiazolo[5,4-b]pyridin-2-yl]-3-prop-2-en-1-ylurea], for which the MIC in assay [1] was found to be 1 mg/L (≈ 2.6 µM); in assay [2], 0.0625 mg/L (≈ 0.163 µM); in assay [4] it was 1 mg/L (≈ 2.6 µM). Moreover, the IC50 in assay [3] came out at 0.0184 µM.

Regarding `C=CCNC(=O)Nc1nc2cc(-c3cncnc3)c(OCc3ccccn3)nc2s1` [Example 34, 1-prop-2-en-1-yl-3-[5-(pyridin-2-ylmethoxy)-6-pyrimidin-5-yl[1,3]thiazolo[5,4-b]pyridin-2-yl]urea], the minimal inhibitory concentration (MIC) in assay [1] was found to be 1.41 mg/L (≈ 3.37 µM); in assay [2], 0.0625 mg/L (≈ 0.149 µM); in assay [4] it was 1 mg/L (≈ 2.38 µM). Besides, the IC50 in assay [3] was 0.0281 µM.

Broadly, the MIC is the smallest concentration in the dilution series that meets the test's criterion for growth inhibition. As usually defined, the IC50 is the point on the concentration scale where inhibition reaches its midpoint.
